Test results published in publication PMC7744527, “The structure of SeviL, a GM1b/asialo-GM1 binding R-type lectin from the mussel Mytilisepta virgata” (Scientific Reports, 2020).
Where a chain is given by its changes, count along the chain named. Numbers in names are those of the source. Like-named read-outs stand apart in the source and are kept apart here.

Experiments:
[1] = biological target: T1, SeviL (Mytilisepta virgata, UniProt A0A646QV53); test: biochemical; type: binding
T1 construct: This vector directs expression of full-length SeviL carrying a thrombin-cleavable hexa-histidine tag; hexa-histidine tag (thrombin-cleavable; leaves residual GSH before the native Met) (N, cleaved yes); made in house; host or cells: E. coli BL21(DE3)
Experimental: (§1) Experimental details are given in Methods/Isothermal Titration Calorimetry. […] ITC experiments were repeated with the monomer mutant SeviL (Q12R/F126K). […] Errors in Kd for the native protein and monomer were determined from triplicate experiments. To produce a stronger signal and lower noise, further experiments were attempted with the concentrations of the native protein and ligand increased ten-fold. […] Different stereo views of the interaction between protein and ligand are shown in SFigure 11.
(§2) Figure 5 (A) A thermogram produced by injecting 1 mM asialo-GM1 saccharide into 50 μ M SeviL. The experiment was repeated three times, each thermogram being fitted to a one-site model (shown as a black line). Dissociation constants were calculated as weighted averages, and errors were calculated as weighted standard deviations, using the reciprocal chi-square values of each individual fit as weights.
Experiments were performed using a MicroCal iTC200 (GE) instrument. The sample of SeviL (in 50 mM phosphate buffer, pH 6.8, 0.1 M NaCl) was placed in the cell, and equilibrated at 298 K. The selected ligand was dissolved in the same buffer, and injected into the protein sample (with 20 injections of 10 μ L each), allowing the baseline to stabilise between injections. The data were analysed using the manufacturer’s software, assuming a simple single site model, to yield a Kd value and chi-square value from each experiment. […] Asialo-GM1 and GM1b were used at 1 mM concentration, each experiment being repeated three times, and errors were determined as the weighted standard deviation of these three values. Higher concentrations of protein and ligand were used in the case of these longer ligands.

[2] = biological target: T1, SeviL; details: 52 oligosaccharides; cited from earlier work
[3] = biological target: T2, SeviL (Q12R/F126K) (Mytilisepta virgata, UniProt A0A646QV53, F126K/Q12R); test: Isothermal titration calorimetry with monomer mutant SeviL (Q12R/F126K); type: binding; details: 1 mM ligand titrated into 50 μM SeviL (Q12R/F126K), one-site model, triplicate
T2 construct: This vector directs expression of full-length SeviL carrying a thrombin-cleavable hexa-histidine tag; hexa-histidine tag (thrombin-cleavable); made in house; host or cells: E. coli BL21(DE3)
T2 sequence (A0A646QV53 whole entry Q12R/F126K): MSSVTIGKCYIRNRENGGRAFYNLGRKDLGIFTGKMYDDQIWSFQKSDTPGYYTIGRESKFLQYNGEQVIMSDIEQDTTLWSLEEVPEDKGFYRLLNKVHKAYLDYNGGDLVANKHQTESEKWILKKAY
Experimental: as §1, §2
Experiments were performed using a MicroCal iTC200 (GE) instrument. […] The data were analysed using the manufacturer’s software, assuming a simple single site model, to yield a Kd value and chi-square value from each experiment. […] Asialo-GM1 and GM1b were used at 1 mM concentration, each experiment being repeated three times, and errors were determined as the weighted standard deviation of these three values. […]

[4] = biological target: the molecule itself; test: AUC; sedimentation velocity, 50,000 rpm, 293 K, 50 mM potassium phosphate pH 6.8, 0.1 M NaCl, absorbance at 280 nm, c(s)/c(M) analysis with SEDFIT; sample concentration printed as 1.0 ug/ml
[5] = test system: trypsinised and glutaraldehyde-fixed rabbit erythrocytes; test: Hemagglutination assay; type: cell-based; details: 10 mM CaCl2, 0.25% Triton X-100, 1 h room temperature
Experimental: Figure 6 Hemagglutination of red blood cells by SeviL. 20 μ L of a two-fold dilution of SeviL (initially 10 mg/mL) were serially diluted and added to the same volume of a red cell suspension containing 0.25% Triton-X100 and 10 mM calcium chloride, and incubated for 1 h at room temperature. Appearance of a dot indicates no agglutination. The number over the wells indicates the protein dilution factor. Top row: dimer SeviL, middle row: dimer SeviL (D39H), and bottom row: monomer SeviL (Q12R/F126K). Column C is a negative control with no added lectin.
Hemagglutination assay was performed in 96-well U-shape plates as described previously. 20 μ L each protein (10 μ g/ml) in TBS was mixed with 20 μ L of a 1% suspension (with TBS; v/v) of trypsinised and glutaraldehyde-fixed rabbit erythrocytes in addition to 20 μ L of TBS containing 0.25% (w/v) Triton X-100 and 10 mM CaCl2. The plate was incubated at room temperature for 1 h, and the formation of a sheet (agglutination-positive) or dot (agglutination-negative) was observed and scored against the lectin titre.

[6] = test system: mammalian carcinoma cells expressing asialo-GM1; set-up: method as in PMID 31769916; details: cited from earlier work
[7] = test system: human red cells; set-up: method as in PMID 31769916; details: in the presence of calcium; cited from earlier work

Work on OC[C@H]1O[C@@H](O[C@H]2[C@H](O)[C@@H](O)C(O)O[C@@H]2CO)[C@H](O)[C@@H](O)[C@H]1O (mixture of isomers) [lactose] yielded a Kd [1] of 8000 to 12000 µM.

In the case of OC[C@H]1OC(O)[C@H](O)[C@@H](O)[C@@H]1O (stereo partly drawn) [Glucose], the “interaction with the protein (ITC)” value ([1]; small sugar ligand) is reported as “not seen to interact with the protein at all”.

In the case of CC(=O)NC1C(O)CC(OC2C(O)C(CO)OC(OC3C(O)C(CO)OC(OC4C(O)C(CO)OC(OC5C(CO)OC(OC6C(CO)OC(O)C(O)C6O)C(O)C5O)C4O)C3NC(C)=O)C2O)(C(=O)O)OC1C(O)C(O)CO (stereo not drawn) [SSEA-4, Neu5Ac α (2-3)Gal β (1-3)GalNAc β (1-3)Gal α (1-4)Gal β (1-4)Glc], the “binding in glycan array” value [2] is listed as “weak binding”.

With CC(=O)N[C@H]1[C@H](O[C@@H]2[C@H](O)[C@@H](O)[C@H](O[C@H]3[C@H](O)[C@@H](O)C(O)O[C@@H]3CO)O[C@@H]2CO)O[C@H](CO)[C@H](O)[C@@H]1O[C@@H]1O[C@H](CO)[C@H](O)[C@H](O)[C@H]1O (stereo partly drawn) [asialo-GM1, Gal β (1-3)GalNAc β (1-4)Gal β (1-4)Glc] the Kd ([1]; 1 mM ligand injected into 50 μM SeviL, 298 K, pH 6.8, one-site model, triplicate, weighted average, read-out: Kd) was 100 µM, the Kd ([1]; protein and ligand concentrations increased ten-fold (1 mM SeviL/10 mM asialo-GM1; 0.8 mM SeviL/12 mM GM1b), model of non-interacting sites, read-out: Kd (exothermic and endothermic binding site, each)) was about 100 µM and the Kd [3] was 100 µM. The “binding in glycan array” value [2] was “bind”.

B1: SeviL (natural protein, Mytilisepta virgata)
chain: MSSVTIGKCYIQNRENGGRAFYNLGRKDLGIFTGKMYDDQIWSFQKSDTPGYYTIGRESKFLQYNGEQVIMSDIEQDTTLWSLEEVPEDKGFYRLLNKVHKAYLDYNGGDLVANKHQTESEKWILFKAY
notes: some N-terminal residues remain after removal of the histidine tag by thrombin; also called recombinant SeviL; wild-type SeviL; source: recombinant, expressed in bacteria, purified (details in Supplementary Information); not shown: histidine tag, N-terminal, cleaved
In the case of B1, the “stoichiometry N” value [4] is reported as 2.

B2: SeviL: recombinant 129 residue dimeric β-trefoil R-type lectin from the mussel Mytilisepta virgata (protein)
chain: B1 chain
modifications: left off: histidine tag, N-terminal, cleaved
notes: recombinant 129 residue dimeric β-trefoil R-type lectin from the mussel Mytilisepta virgata
In the case of B2, the hemagglutination [5] is given as “can trigger hemagglutination at low concentration”, the “effect on carcinoma cells” value [6] is given as “activates apoptotic pathways, causing cell death” and the hemagglutination [7] is given as “cause hemagglutination”.

B3: SeviL (Q12R/F126K): SeviL double mutant at the dimer interface, almost entirely monomeric, retains sugar binding (protein)
chain: B1 chain with Q12R, F126K
modifications: left off: histidine tag, N-terminal, cleaved
With B3 the hemagglutination [5] was “Hemagglutination is also lost”.
